Laboratory results published in patent US10471127B2, “Peptide pharmaceuticals for insulin resistance” (Mederis Diabetes, LLC, priority 2011, dated 2019).

Target: T1, glucagon R (Homo sapiens, UniProt P47871)
T1 construct: Cerep SA
Assay: glucagon cellular assay, stimulation of cAMP levels (Cerep SA)
Type: cell-based
Conditions: cAMP generated in cells; n.c. means EC50 not calculable
Procedure: Compounds were weighed precisely in an amount of approximately 1 mg and assayed in standard cellular assays (Cerep SA). The readout is the amount of cAMP generated in the cells treated with the test compounds, in either agonist or antagonist mode.

T1 sequence (P47871 26-477): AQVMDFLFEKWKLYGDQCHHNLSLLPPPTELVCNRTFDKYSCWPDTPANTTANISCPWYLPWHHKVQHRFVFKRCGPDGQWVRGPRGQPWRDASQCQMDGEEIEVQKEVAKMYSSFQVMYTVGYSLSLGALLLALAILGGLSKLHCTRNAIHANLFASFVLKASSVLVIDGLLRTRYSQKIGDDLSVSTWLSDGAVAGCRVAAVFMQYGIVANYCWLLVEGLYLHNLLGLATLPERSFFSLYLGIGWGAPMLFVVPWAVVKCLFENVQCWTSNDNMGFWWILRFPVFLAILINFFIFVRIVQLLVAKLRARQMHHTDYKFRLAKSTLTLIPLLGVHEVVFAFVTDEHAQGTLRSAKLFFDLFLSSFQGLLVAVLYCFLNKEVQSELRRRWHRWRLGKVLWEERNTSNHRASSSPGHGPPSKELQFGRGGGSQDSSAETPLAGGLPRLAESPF

With `CCCCCCCCCCCCO[C@@H]1O[C@H](C(=O)NCCCC[C@H](NC(=O)[C@@H]2CCCCNC(=O)CC[C@H](NC(=O)[C@H](CC(=O)O)NC(=O)[C@H](CC(C)C)NC(=O)[C@H](Cc3ccc(O)cc3)NC(=O)[C@H](CCCCN)NC(=O)[C@H](CO)NC(=O)[C@H](Cc3ccc(O)cc3)NC(=O)[C@H](CC(=O)O)NC(=O)[C@H](CO)NC(=O)[C@@H](NC(=O)[C@H](Cc3ccccc3)NC(=O)[C@@H](NC(=O)CNC(=O)[C@H](CCC(N)=O)NC(=O)C(C)(C)NC(=O)[C@@H](N)Cc3c[nH]cn3)[C@@H](C)O)[C@@H](C)O)C(=O)N[C@@H](CCCNC(=N)N)C(=O)N[C@@H](C)C(=O)N[C@@H](C)C(=O)N2)C(=O)N[C@@H](Cc2ccccc2)C(=O)NC(C)(C)C(N)=O)[C@@H](O)[C@H](O)[C@H]1O` [EU-A455] as the molecule, how does the EC50 read?
The EC50 was 770 nM.

Test system: not given
Assay: not given
Conditions: in water; cited from earlier work

Which CMC does the source give for `CCCCCCCCCCO[C@@H]1O[C@H](CO)[C@@H](O[C@H]2O[C@H](CO)[C@@H](O)[C@H](O)[C@H]2O)[C@H](O)[C@H]1O` [Decyl maltoside] here?
The CMC was 1.8 mM.

With `CCCCCCCCCCCCCCO[C@@H]1O[C@H](CO)[C@@H](O[C@@H]2O[C@@H](CO)[C@H](O)[C@@H](O)[C@@H]2O)[C@H](O)[C@H]1O` (stereo in doubt) [Tetradecyl maltoside] as the molecule, how does the CMC read?
Its CMC is 0.01 mM.

Which CMC does the source give for `CCCCCCCCCCCCO[C@@H]1O[C@H](CO)[C@@H](O[C@H]2O[C@H](CO)[C@@H](O)[C@H](O)[C@H]2O)[C@H](O)[C@H]1O` [Dodecyl-β-D-maltoside] here?
Its CMC is 0.17 mM.

For `CCCCCCCCO[C@@H]1O[C@H](CO)[C@@H](O[C@H]2O[C@H](CO)[C@@H](O)[C@H](O)[C@H]2O)[C@H](O)[C@H]1O` [Octyl maltoside], which CMC is on record?
Its CMC is 19.5 mM.

Which CMC does the source give for `CCCCCCCCCCCCCO[C@@H]1O[C@H](CO)[C@@H](OC2OC(CO)C(O)C(O)C2O)[C@H](O)[C@H]1O` (stereo in doubt) [Tridecyl maltoside] here?
Its CMC is 0.03 mM.

With Sucrose dodecanoate as the molecule, how does the CMC read?
The CMC was 0.3 mM.
